Numbered stars: 1 amine (or outer) side, 2 acyl side, 3 side chain; on linkers, the order of the positions; unused ones are H or OH. Bridge positions count the residues as written; N and C are the ends. Ends that are not written are not given here. Peptide text beside a SMILES is read from it. * marks the point of attachment. Perfluorobiphenyl(4,4') = Fc1c(F)c([*:1])c(F)c(F)c1-c1c(F)c(F)c([*:2])c(F)c1F; FITC = O=C1OC2(c3ccc(O)cc3Oc3cc(O)ccc32)c2ccc(NC(=S)*)cc21; Ahx = NCCCCCC(=O)O
Assays:
[1] = system: HEK293 cells overexpressing WT or A53T a-syn; assay: Cell Titer-Glo cell viability assay in a-syn expressing cells; assay type: cell-based, human
WT a-syn oligomers = assay: Split luciferase a-syn oligomer/aggregation assay; assay type: cell-based, human; conditions: cells stably expressing split luciferase a-synuclein constructs; stapled peptides
Procedure: tet-off cells stably expressing split luciferase a-syn constructs were trypsinized from subconfluent culture and seeded in a 96-well plate at a density of 15,000 cells per well. Cells were incubated overnight at 37° C. in 5% CO2. […] After 6 h of incubation, 20 μL of cell medium was transferred to a black flat-bottomed 96-well plate. 50 μL of Working solution (Pierce Gaussia-Firefly Luciferase Dual Assay Kit, Thermo Scientific #16181) was added into each well containing cell medium. Immediately after adding the reagent, samples were read using a luminometer with a 480 nm filter.

A53T a-syn = assay: a-syn protein levels by immunoblot in HEK293 cells; assay type: cell-based, human; conditions: HEK293 cells expressing A53T a-syn
Procedure: Infected or transfected cells were scraped from 6-well dishes and lysed with lysis buffer (50 mM Tris-HCl pH7.4, 1% Nonidet P-40, 150 mM NaCl, 1 mM EDTA, 1× protease inhibitor mixture (Sigma)) for 30 min at 4° C. The insoluble pellet was removed following a 10,000 rpm spin for 5 minutes at 4° C. Lysates were analyzed by SDS-PAGE/immunoblot using 4-20% Mini-PROTEAN Tris-glycine gels (Bio-Rad) transferred to PVDF membranes and blocked in 5% milk containing PBS-Tween-20 (0.1%) for 1 h. PVDF membranes were then incubated with specified primary antibodies followed by incubation with horseradish peroxidase-conjugated secondary antibodies (Santa Cruz Biotechnology) and detected using enhanced chemiluminescence (GE Healthcare).

[2] = system: HEK293 cells overexpressing WT or A53T a-syn; assay: Cell Titer-Glo cell viability assay in a-syn expressing cells; assay type: cell-based, human; conditions: HEK293 cells overexpressing WT or A53T a-syn, with or without MG132; expressed GFP-peptide or protein
Procedure: Oligonucleotides encoding the specific peptides were synthesized and individually cloned into the pLJM1 nGFP lentiviral vector. Cells were infected with individual constructs, and cell viability was assessed using Cell Titer-Glo Luminescent assay (Promega) at 72 h post infection.
Cells were trypsinized from subconfluent cultures as described earlier, suspended in culture media, and then seeded into triplicate wells of a 96-well plate (100 μl well/1) at a density of 1.5×10^4 cells per well at standard culture conditions of 5% CO2 in air at 37° C. Cells were infected with lentivirus expressing peptide at an MOI of 5 for 72 h or transfected with plasmid for 72 h. Cell Titer-Glo reagent was added to each well (30 μL), according to the manufacturer's protocol and […].

[3] = system: a-syn oligomers in HEK293 cells; assay: Oligomers screen (split YFP-a-syn protein fragment complementation, FACS); assay type: cell-based, human; conditions: for Reads GFP High: FACS fraction GFP High; for Reads GFP Inter: FACS fraction GFP Inter; for Reads GFP Neg: FACS fraction GFP Neg
Text: To detect a-syn oligomers, a protein fragment complementation assay (PCA) of a-syn oligomerization in HEK293 cells (14) was used. In this assay, human A53T a-syn was fused to either the C- or N-terminal half of yellow fluorescent protein (YFP). No fluorescence is detectable while a-syn exists in monomers but, when a-syn oligomerizes, the two halves of YFP come in close enough proximity to form a functional, spontaneously fluorescent protein. […] By using fluorescence activated cell sorting (FACS), cells expressing Flag-tagged peptides that directly or indirectly interfered with a-syn oligomer formation were isolated and then the peptides were identified from genomic DNA (FIG. 1A). The screens yielded 10 hits (Table 1). The hit with the most reads (i.e., the most abundant) was the same peptide in all screens: IPIQLKA (SEQ ID NO: 1) (PDpep1) (Table 2). […] Lead peptide targets CHMP2B, a member of ESCRT-III
PCR primers that included the Illumina adaptor sequences were used to amplify peptide coding sequences recovered from selection and cell sorting. Results were demultiplexed, and peptide counts were tallied. After demultiplexing, only reads with an average quality Phred score of >30 were selected, and frequencies were calculated. Finally, the reads were then normalized to the total number of peptides read for that sample population, and a scalar factor was applied. In parallel, ˜25 individual colonies were Sanger sequenced to compare to the NGS data.
Lentiviruses were made in a 15 cm dish format by transfecting packaging cells (293T) with a three-plasmid system as previously described. Viral transduction of HEK293T cells, tet-off split luciferase a-syn cells, tet-off parent cells, and SH-SY5Y cells were performed with a multiplicity of infection of 0.3 (MOI=0.3). Infected cells were selected in puromycin-containing medium to eliminate uninfected cells and three aliquots of cells were collected for sampling of the initial (TO) cell population. Cells were treated with MG132 at concentrations of 0 μM, 10 μM, 25 μM or 50 μM. For the cell viability screen, surviving cells were collected and gDNA was extracted for identification of peptide inhibitors of cell toxicity. For the inhibition of a-syn aggregation screen, split YFP-a-syn constructs were transfected following stable expression of the peptides. Cells were sorted based on their GFP fluorescence intensities with a FACSVantage SE cell sorter (BD Bioscience).
Cells were harvested by trypsin treatment and centrifuged at 500×g for 5 minutes. The pellet was resuspended in ice-cold PBS and centrifuged again. The pellet was then resuspended at a concentration of 4×10^6 cells/ml in the sorting buffer, which is PBS containing 100 Kunitz Dnase l/ml, 10 μg/ml propidium iodide (Sigma) and 2% FBS. The sorting solution was also supplemented with either 10 μM forskolin, 100 μM 5,6-Dichlorobenzimidazole riboside (DRB, Sigma), 10 μM forskolin (Sigma) and 100 μM DRB or DMSO, as a control. The cells were then sent through a 40 μm filter to remove large clumps and loaded into either a FACScan Flow Cytometer (BD Bioscience) for cell analysis or a FACSVantage SE cell sorter (BD Bioscience) for cell sorting. The cells with positive propidium iodide staining (i.e., dead cells) were first eliminated from the analysis or sorting pool. For cell sorting, the desired population, either the most or least bright EGFP-positive cells, according to the purpose of the experiments (see Results), was sorted into either 15 ml conical tubes or 96-well plates, which both contained complete DMEM culture media.
Genomic DNA (gDNA) from peptide expressing cells at different time-points was extracted using QIAamp DNA Blood Mini Kit. PCR amplifications of peptides from gDNA in parallel with the lentiviral plasmid library (naïve library) were performed using indexed Illumina PCR primers to incorporate both the Illumina adapter sequences and indexing sequences. […]

[4] = target: T1, Charged multivesicular body protein 2B (CHMP2B), full length, purified (human, UniProt Q9UQN3 2-213); assay: fluorescence polarization, FITC-labelled a-syn peptide, CHMP2B titrated
T1 construct: mature; not shown: tag from the pET-DEST42 vector used for Ni-NTA purification

CHMP2B 1-199 truncation [5] = target: T2, CHMP2B 1-199 truncation (human, UniProt Q9UQN3 1-199); assay: fluorescence polarization
T2 construct: Tags and purification of the truncated protein are not described

[6] = target: T1, Charged multivesicular body protein 2B …; assay: fluorescence polarization
[7] = target: T3, VPS4B, purified (His-tagged Sumo construct) (UniProt O75351 1-444); assay: fluorescence polarization (FIG. 8)
T3 construct: also called Vacuolar Protein Sorting 4; not shown: His tag and Sumo (pRSet B vector)
T3 sequence (looked up): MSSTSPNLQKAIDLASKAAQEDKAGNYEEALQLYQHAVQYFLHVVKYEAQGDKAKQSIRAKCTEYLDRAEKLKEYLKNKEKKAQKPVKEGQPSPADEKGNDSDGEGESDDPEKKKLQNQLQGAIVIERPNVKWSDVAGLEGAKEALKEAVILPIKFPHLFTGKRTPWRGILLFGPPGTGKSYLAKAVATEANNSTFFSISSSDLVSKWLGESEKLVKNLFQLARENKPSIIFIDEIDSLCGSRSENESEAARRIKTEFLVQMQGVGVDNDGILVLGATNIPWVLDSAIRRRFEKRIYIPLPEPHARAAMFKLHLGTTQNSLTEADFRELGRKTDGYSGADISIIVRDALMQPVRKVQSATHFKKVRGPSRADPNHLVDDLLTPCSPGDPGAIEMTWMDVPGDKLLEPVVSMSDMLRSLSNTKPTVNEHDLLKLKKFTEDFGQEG

[8] = target: T3, VPS4B, purified (His-tagged Sumo …); assay: fluorescence polarization, FITC-peptide against VPS4B
[9] = target: T1, Charged multivesicular body protein 2B …; assay: fluorescence polarization, 50 nM FITC-peptide, CHMP2B titrated
CHMP2B 1-199 truncation [10] = target: T2, CHMP2B 1-199 truncation; assay: fluorescence polarization, stapled peptide against truncated CHMP2B (1-199)
[11] = target: T1, Charged multivesicular body protein 2B …; assay: fluorescence polarization, stapled peptide against full length CHMP2B

T1 sequence (Q9UQN3 2-213): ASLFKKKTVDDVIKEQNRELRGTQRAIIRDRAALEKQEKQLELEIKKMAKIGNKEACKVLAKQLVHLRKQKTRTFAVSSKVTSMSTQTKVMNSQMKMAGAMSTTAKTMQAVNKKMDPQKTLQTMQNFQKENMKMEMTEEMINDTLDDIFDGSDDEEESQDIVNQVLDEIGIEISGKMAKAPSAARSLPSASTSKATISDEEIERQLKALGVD
T2 sequence (Q9UQN3 1-199 limits assumed): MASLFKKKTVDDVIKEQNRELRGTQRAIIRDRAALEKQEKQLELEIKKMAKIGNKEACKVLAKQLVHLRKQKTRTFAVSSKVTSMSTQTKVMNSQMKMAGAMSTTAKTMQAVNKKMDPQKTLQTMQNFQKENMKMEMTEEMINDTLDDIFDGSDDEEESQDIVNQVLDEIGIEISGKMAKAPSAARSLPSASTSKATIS

DEEYCRQWKALC (cysteine staple) [stapled macrocycle; cysteines introduced at the locations to be stapled]
A53T cell viability, stapled peptides incubated [1]: increase in A53T cell viability | a-syn aggregation measured by luciferase activity (WT a-syn oligomers): significant reduction in a-syn aggregation

CC[C@H](C)[C@H](NC(=O)[C@H](CCC(=O)O)NC(=O)[C@H](CCC(=O)O)NC(=O)[C@H](CC(=O)O)NC(=O)CCCCCNC(=S)Nc1ccc2c(c1)C(=O)OC21c2ccc(O)cc2Oc2cc(O)ccc21)C(=O)N[C@H]1CSc2c(F)c(F)c(c(F)c2F)-c2c(F)c(F)c(c(F)c2F)SC[C@@H](C(N)=O)NC(=O)[C@H](CC(C)C)NC(=O)[C@H](C)NC(=O)[C@H](CC(=O)O)NC(=O)[C@H](CC(C)C)NC(=O)[C@H](CCC(N)=O)NC(=O)[C@H](CCCNC(=N)N)NC1=O ({FITC-Ahx}-DEEICRQLDALC-NH2; linker 5-12 via Perfluorobiphenyl(4,4'); N-terminus and C-terminus assumed)
A53T cell viability, stapled peptides incubated [1]: increase in A53T cell viability | a-syn aggregation measured by luciferase activity (WT a-syn oligomers): significant reduction in a-syn aggregation

CHMP2B (1-199): truncated CHMP2B removing the MIM, residues 1-199
a-syn protein levels by immunoblot (A53T a-syn): reduction in a-syn levels | cell viability / cytoprotective effect [2]: rescues toxicity

LKRDQPV [7-mer library hit, oligomers screen]
Reads Ratio [3]: 30.30 | Reads GFP High [3]: 3 | Reads GFP Inter [3]: 0 | Reads GFP Neg [3]: 118

ECHTKIR [7-mer library hit, oligomers screen]
Reads Ratio [3]: 39.21 | Reads GFP High [3]: 1 | Reads GFP Inter [3]: 0 | Reads GFP Neg [3]: 76

DIEICFQLKALC (cysteine staple) [stapled macrocycle; cysteines introduced at the locations to be stapled]
A53T cell viability, stapled peptides incubated [1]: increase in A53T cell viability | a-syn aggregation measured by luciferase activity (WT a-syn oligomers): significant reduction in a-syn aggregation

CHMP2B (1-178): shorter CHMP2B truncation (1-178) implicated in FTD
cell viability / cytoprotective effect [2]: increased toxicity

CFLFQIQ [7-mer library hit, oligomers screen]
Reads Ratio [3]: 45.32 | Reads GFP High [3]: 1 | Reads GFP Inter [3]: 0 | Reads GFP Neg [3]: 88

TQKRELT [7-mer library hit, oligomers screen]
Reads Ratio [3]: 35.64 | Reads GFP High [3]: 1 | Reads GFP Inter [3]: 0 | Reads GFP Neg [3]: 69

{FITC}-NEEGAPQEGILE [FITC-labelled a-syn peptide, amino acids 103-114 (NEEGAPQEGILE)]
Kd [4]: 640 nM

{FITC}-DIEICFQLKALC (linker 5-12 via hexafluorobenzene (inferred), also called optimized macrocycle) [Stapled peptide DIEICFQLKALC]
binding result (CHMP2B 1-199 truncation [5]): binds | binding result [6]: binds

B1: FITC-labeled PDpep1.3 peptide DEEIERQLKALG (peptide)
peptide: {FITC}-DEEIERQLKALG
notes: Synthetic peptide (LifeTein) with an N-terminal FITC moiety, used in the fluorescence polarization assays; also called DPpep1.3; FITC-Pdpep1.3
Kd [7]: > 100000 nM | Kd [8]: ~200000 nM | Kd [9]: 1800 nM

{FITC}-DEEICRQLDALC (linker 5-12 via hexafluorobenzene (inferred), also called optimized macrocycle) [Stapled Pdpep1.4 variant DEEICRQLDALC]
Kd (CHMP2B 1-199 truncation [10]): 60 nM | Kd [11]: 600 nM

Source: US20250051391A1, “PEPTIDE INHIBITORS AND METHODS FOR INHIBITING PROTEIN AGGREGATION IN NEURONS AND NEURODEGENERATIVE DISEASES” (THE GOVERNING COUNCIL OF THE UNIVERSITY OF TORONTO, priority 2021, published 2025)
